Measured values as given in US20220265766A1, “ANTIMICROBIAL THERAPY THROUGH THE COMBINATION OF PORE-FORMING AGENTS AND HISTONES” (THE REGENTS OF THE UNIVERSITY OF CALIFORNIA, priority 2019, published 2022).
“Also recorded” adds a separate entry of the source.

Columns and labels:
E. coli [1] = format: cell-based, Escherichia coli; settings: 1 mM magnesium; 10 μg/mL H2A, 2 μM LL-37, 10 μM MAG2, 1 μg/mL PMB, 10 μg/mL Kan, 10 μg/mL Cam, alone or combined
Experimental: Growth curve experiments were performed using a Synergy HTX multi-mode plate reader and sterile, tissue-culture treated, clear bottom, black polystyrene 96-well microplates (Corning). The temperature setpoint was 37° C. and preheated before beginning measurements. Each well contained 200 μL of total bacterial solution. For experiments performed with stationary phase bacteria, overnight cultures of bacteria were grown overnight to saturation, diluted 1:1000 into minimal medium with 1 μM or 1 mM MgSO4, and supplemented with H2A, LL-37, kanamycin, chloramphenicol, or polymyxin B. For experiments performed with exponential phase bacteria, overnight cultures of bacteria were sub-cultured in fresh minimal medium containing 1 mM MgSO4 and grown to an optical density at 600 nm (OD600) of 0.2. Exponential-phase bacteria were diluted 1:20 into fresh minimal medium with 1 μM or 1 mM MgSO4, and supplemented with H2A, LL-37, magainin-2, kanamycin, chloramphenicol, or polymyxin B. After adding antimicrobial agents, bacterial cultures were immediately added to the 96-well microplates for growth measurements. Growth curves were constructed by taking measurements every 15 minutes for up to 48 hours. Shaking was set to continuous orbital, with a frequency of 282 cpm (3 mm). The read speed was normal, with a 100 msec delay, and 8 measurements per data points.

E. coli [2] = assay: Fluorescent histone and fluorescent LL-37 uptake in E. coli; format: cell-based, Escherichia coli; settings: 1 hour; for AF-H2A uptake (cellular fluorescence): 10 μg/mL AF-H2A alone or with 10 μg/mL Cam, 50 μg/mL Kan, 2 μM LL-37, 1 μg/mL PMB or 10 μM MAG2, 1 mM magnesium
Experimental: E. coli strain MG1655 or S. aureus strain RN4220 was cultured to an OD600 of 0.2, and diluted 1:20 into fresh minimal medium containing 1 mM MgSO4. H2A uptake in E. coli was measured by adding 10 μg/mL AF-H2A (1% Alexa Fluor-labeled H2A mixed with 99% unlabeled H2A) and 10 μg/mL Cam, 50 μg/mL Kan, 2 μM LL-37, 1 μg/mL PMB, or 10 μM MAG2, incubating for 1 hour, and analyzing using fluorescence microscopy. H2A uptake in S. aureus was measured using same concentrations of AF-H2A and LL-37. To measure uptake in low ionic conditions, E. coli was grown to OD600 of 0.2 in minimal medium containing 1 mM MgSO4, and diluted 1:20 into fresh minimal medium containing 1 μM or 1 mM MgSO4. H2A uptake in E. coli was measured by adding 10 μg/mL AF-H2A (1% Alexa Fluor-labeled H2A mixed with 99% unlabeled H2A), incubating for up to 3 hours, and analyzing using fluorescence microscopy. LL-37 uptake in both bacteria was measured by adding 1 μM fluorescently-labeled LL-37 (1% 5-FAM-LC-LL-37 (Anaspec) mixed with 99% unlabeled LL-37) or additionally with 10 μg/mL unlabeled H2A, incubating for 1 hour, and imaging using fluorescence microscopy. Time-lapse measurements of LL-37 uptake in E. coli were performed by adding 2 μM fluorescently-labeled LL-37 (3% 5-FAM-LC-LL-37 mixed with 97% unlabeled LL-37) or additional 10 μg/mL unlabeled H2A, immobilizing on agarose pads, and imaging using fluorescence microscopy. Cell membranes were visualized by adding 1.6 μM FM4-64 (MilliporeSigma, Burlington, Mass.), immobilizing on agarose pads, and imaging using fluorescence microscopy.

E. coli [3] = assay: Timelapse of E. coli recovery and time course of membrane healing (CFP, PI); format: cell-based, Escherichia coli; settings: then washed
Experimental: To quantify the time-course of recovery in E. coli treated with LL-37 alone or with the synergistic combination of LL-37 and H2A, MAL204 was cultured to mid-exponential phase in MinA minimal medium, added 1 μM LL-37 or 1 μM LL-37 with 10 μg/mL H2A, and incubated for 1 hour. The solution was filtered through a 0.22 μm filter to remove excess LL-37 and H2A and cells were resuspended in fresh minimal medium. Cells were immobilized on a 1% agarose pad and imaged over an hour time period.
To quantify the time-course of membrane repair in bacteria treated with H2A alone, AMPs alone, or the synergistic combination of AMPs and H2A, MAL204 was grown to mid-exponential phase in MinA minimal medium, diluted 1:20 with 10 μg/mL H2A, 1 μM LL-37, 1 μM LL-37 with 10 μg/mL H2A, 10 μM MAG2, or 1 μM MAG2 with 10 μg/mL H2A, and incubated for 1 hour. […] Cells were allowed to recover for 0, 30, 60 minutes before the addition of 30 μM propidium iodide for 15 minutes prior to performing fluorescence microscopy. Intracellular propidium iodide fluorescence and CFP fluorescence were quantified. To quantify the time-course of membrane repair in bacteria treated with H2A in low and physiological environments, MAL204 was grown to mid-exponential phase, diluted 1:20 into minimal media with 1 μM or 1 mM MgSO4, with or without 10 μg/mL H2A, and incubated for 3 hours. […]

E. coli genomic DNA = assay: Non-denaturing nucleic acid PAGE; format: binding, Escherichia coli; settings: 1 μg DNA with 0-1.4 μg H2A or LL-37
Experimental: Overnight MG1655 cultures were grown to saturation in Minimal. DNA purification was performed using a Miniprep kit (Qiagen, Germantown, Md.). A three-second sonication step was performed after lysis to isolate genomic DNA.
10 μL mixtures containing 1 μg purified DNA from MG1655 were incubated with 0-1.4 μg Histone H2A or LL-37 for 25 minutes at 25° C. Gel loading sample buffer (5×, Bio-Rad, Hercules, Calif.) was added to a final concentration of 1× and the products were separated by native PAGE on a 5% TBE gel (Bio-Rad, Hercules, Calif.) at 100 V for 60 minutes. The gel was stained with 1×SYBR safe (Invitrogen, Carlsbad, Calif.) in TBE buffer^71 for 30 minutes before visualization using a EOS Rebel T5 DSLR camera with an f/3.5-5.6 18-55 mm lens (Canon, Huntington, N.Y.) and a DR46B Transilluminator (Clare Chemical, Dolores, Colo.).

E. coli [4] = assay: Chromosomal analysis using SYTOX and HupA-mRuby2; format: cell-based, Escherichia coli; settings: 10 μg/mL H2A, 2 μM LL-37 or both; 3 hours
Experimental: MG1655 or XL-1 Blue expressing HupA-mRuby2 was cultured to OD600 of 0.2, diluted 1:20 into fresh MinA minimal medium, and treated with 2 μM LL-37, 10 μg/mL H2A or both LL-37 and H2A for 30 minutes. For SYTOX visualization, MG1655 were stained with 3 uM SYTOX Green nucleic acid stain (ThermoFisher, Waltham, Mass.) for 10 minutes. Cells were immobilized on agarose pads containing 2 uM LL-37, 10 μg/mL H2A, or both LL-37 and H2A, and remained on the pad for 3 hours before imaging using the fluorescence microscopy. For SYTOX analysis, pads additionally contained 5 uM SYTOX Green. Raw images were analyzed through principal component analysis using our own custom-written image analysis tools^67,68 version 1.1 and modified in Matlab (Version R2017b; Mathworks, Natick, Mass.). See ‘Code Availability’ section below for code. Individual cells were identified in phase contrast images using canny edge detection and using SuperSegger^70. […] The covariances between corresponding pixels of different cells were computed using the 16 bit intensity values from the rotated and resized fluorescence images and for the same images rotated by an additional 180 degrees. […] The size of each bin was determined by subtracting the minimum principal component score from the maximum principal component score and dividing that by the number of bins along that principal component. […]

E. coli [5] = assay: In vivo transcription assay (tet-inducible mCherry); format: cell-based, Escherichia coli; settings: 1-hour pre-treatment with 10 μg/mL H2A, 2 μM LL-37 or both; anhydrotetracycline 1 hour
Experimental: To determine how histone entry into the bacterial cell impacts transcription, MAL190 was cultured to mid-exponential phase, diluted 1:20 in MinA minimal medium, treated with 10 μg/mL Histone H2A and/or 2 μM LL-37, incubated for 1 hour, and induced for transcription using 50 ng/mL of anhydrotetracycline. The fluorescence of mCherry was measured after 1 hour using fluorescence microscopy.

E. coli [6] = assay: SEM imaging of E. coli; format: cell-based, Escherichia coli; settings: 10 μg/mL H2A, 1 μM LL-37 or both; 1 hour; 1 mM magnesium
Experimental: MG1655 was cultured to an OD600 of 0.2, diluted 1:20, and supplemented with 10 μg/mL H2A and/or 1 μM LL-37. Cells were treated for 1 hour and added to a glass bottomed petri dish for 15 minutes. Due to lower levels of adhesion, control cells were not diluted 1:20 and were incubated in the glass-bottomed petri dish for 45 minutes. Media was removed and 4% paraformaldehyde (PFA) was added for 20 minutes to fix bacteria. Dehydration was performed using serial ethanol dilutions. The fixed and dehydrated samples were coated with 10 nm of iridium using an ACE600 sputter coater (Leica Microsystems, Buffalo Grove, Ill.). Bacteria and surfaces were then characterized using a FEI Magellan 400 XHR Scanning Electron Microscope (FEI Company, Hillsboro, Oreg.) at a 45° tilt angle with an acceleration voltage of 3 kV.

E. coli [7] = assay: Cell aggregate size and cell size analysis; format: cell-based, Escherichia coli
Experimental: MG1655 were cultured to an OD600 of 0.2, diluted 1:20 into fresh MinA minimal medium, treated with 0-4 μM LL-37 or 0-100 μg/mL H2A, and incubated for 1 hour. Cells were immobilized on an agarose pad using, imaged using phase contrast microscopy, and analyzed using our own custom-written image analysis tools^67,68. version 1.1 that was written in Matlab (Version R2017b; Mathworks, Natick, Mass.). See ‘Code Availability’ section below to download code. The total pixel area of each individual cell was determined by computing the mask area and converting from pixels to μm^2 by multiplying the mask area by a factor of 0.00422 μm^2/pixel to account for the microscope camera pixel size and objective magnification.

E. coli [8] = settings: E. coli after 12 hours; reported (ref. 36); cited from earlier work

Row | Compound | E. coli growth (growth rate, lag time) (E. coli [1]) | AF-H2A uptake (cellular fluorescence) (E. coli [2]) | LL-37 uptake (5-FAM-LL-37 fluorescence) (E. coli [2]; fluorescently-labeled LL-37 alone or with 10 μg/mL H2A) | CFP fluorescence / growth during 1-hour recovery period (E. coli [3]; 1-hour treatment with 10 μg/mL H2A, 1 μM LL-37, 10 μM MAG2, alone or combined) | PI fluorescence during 1-hour recovery (E. coli [3]; 1-hour treatment with H2A, LL-37, MAG2, alone or combined) | migration / retention of E. coli DNA in gel (E. coli genomic DNA) | HupA-mRuby2 localization (E. coli [4]) | chromosome localization pattern (Sytox Green) (E. coli [4]) | mCherry fluorescence (transcription induction) (E. coli [5]) | cell morphology by SEM (E. coli [6]) | aggregation of cells (E. coli [7]; H2A or LL-37, 1 hour) | cell size (E. coli [7]; LL-37 alone, indicated concentrations, 1 hour) | bulk minimum inhibitory concentration (MIC) (E. coli [8]) [µM]
1 | LL-37: human cathelicidin antimicrobial peptide LL-37 (Anaspec) | decreased the growth rate and slightly extended the lag time | significantly enhanced AF-H2A uptake | Fluorescence was observed in the cytoplasm | resumed growth and division and retained expression of CFP; also recorded: CFP fluorescence increased or remained the same | significantly lower | less retention of bacterial DNA | condensed the fluorescence near the center of the cell | no significant change in localization | little effect on mCherry fluorescence | few cell morphological differences | did not induce aggregation | significant reduction in cell size | 2
2 | O=C(N[C@H](CO)[C@H](O)c1ccc([N+](=O)[O-])cc1)C(Cl)Cl [chloramphenicol, reference compound] | increased the growth lag time | did not induce AF-H2A uptake |  |  |  |  |  |  |  |  |  |  | 
3 | polymyxin B [PMB, reference compound] | slightly inhibited growth | significantly enhanced AF-H2A uptake |  |  |  |  |  |  |  |  |  |  | 
